Like-named read-outs stand apart in the source and are kept apart here.
Experiments:
[1] = intravenous injection during the first 12 hours after stroke, cited from earlier work
[2] = test system: rats with focal cerebral ischemia; conditions: cited from earlier work
[3] = test system: rats with hemic hypoxia (sodium nitrite); experiment: Hemic hypoxia in rats (sodium nitrite 80 mg/kg), oral treatment; type: in vivo, rat; conditions: 40 minutes before sodium nitrite
Method: Table 5 summarizes the anti-hypoxic and neuroprotective effects of such treatments.
Rats were treated as in Example 5. Table 6 summarizes the neuroprotective effect of such treatments.

[4] = test system: rats with chronic kainate degeneration of the brain (AMPA/kainate receptors); experiment: Chronic kainate degeneration in rats (kainic acid 12 mg/kg I.M.), treatment I.M.; type: in vivo, rat; conditions: for Chronic Kainate lethality in rats (%) / Rats with heavy neurologic disturbances (%) / Rats with large weight loss (%): I.M.; for Chronic Kainate lethality in rats (%): 2 weeks after kainate; for Rats with heavy neurologic disturbances (%): score 3 to 5 points; for Dose with significant neuroprotective effect: text summary of Table 3 (NMDA lethality and kainate degeneration)
Method: Table 3 summarizes the neuroprotective effect of such treatments.
Rats were treated as in Example 3. Table 4 summarizes the neuroprotective effect of such treatments.

[5] = test system: mice, toxic stimulation of NMDA receptors of brain
Method: Mice were I.P. administered with 250 mg/kg N-Methyl-D-aspartic acid (NMDA), a neurotoxin causing clonic-tonic seizure and death in 100% of animals by toxic stimulating of NMDA receptors of brain (Leander et al., Brain Res., 1988, Vol. 448 (1), pages 115-120). Rats were I.M. administered with 12 mg/kg Kainic acid to achieve chronic kainate degeneration of the brain by stimulation of AMPA/kainate receptors (Serdyuk et al., Bull. Exp. Biol. Med., 2014, Vol. 157(1), pages 15-17). Chronic kainate degeneration leads to chronic kainate lethality, neurologic disturbances and large weight loss (Serdyuk et al., Bull. Exp. Biol. Med., 2014, Vol. 157(1), pages 15-17).
Animals were then treated with deionized water (control), memantine, epinephrine or combinations of memantine and epinephrine, which were I.P. or I.M administered, as indicated.
Rats were treated as in Example 3.

[6] = test system: rats with hemic hypoxia (sodium nitrite); experiment: Hemic hypoxia in rats (sodium nitrite 80 mg/kg I.M.), treatment I.M.; type: in vivo, rat; conditions: for ED50: Rattus norvegicus, im; for ED50 / Dose with significant anti-hypoxic effect: combination: memantine dose; for Dose with significant anti-hypoxic effect: text summary of Table 1 (hemic and asphyctic hypoxia)
Method: (§1) Rats were intra-muscularly (I.M.) administered with 80 mg/kg sodium nitrite to achieve hemic hypoxia (Serdiuk et al., Eksp. Klin. Farmakol., 2000, Vol. 63(6), pages 3-8). Mice were caged in a 100 cm^3 sealed glass chamber to achieve asphyctic hypoxia, which simulates cerebral ischemia (Serdiuk et al., Eksp. Klin. Farmakol., 2000, Vol. 63(6), pages 3-8; Khalili et al., Eur. Rev. Med. Pharmacol. Sci., 2015, Vol. 19(17), pages 3282-3285).
(§2) Rats and mice were treated as in Example 1.

[7] = test system: mice with asphyctic hypoxia; experiment: Asphyctic hypoxia in mice (sealed 100 cm^3 glass chamber), treatment I.P.; type: in vivo; conditions: for ED50: Mus musculus, ip, Dose increasing the life of mice by 50%, combination: memantine dose, read-out: Asphyctic hypoxia (ED50), mg/kg, I.P. admin.
Method: as §1, §2

[8] = cited from earlier work
[9] = test system: rats with chronic kainate degeneration of the brain (AMPA/kainate receptors); experiment: Chronic kainate degeneration in rats (kainic acid 12 mg/kg), oral treatment; type: in vivo, rat; conditions: for Chronic kainate lethality in rats, % per group: 2 weeks after kainate; for Rats with heavy neurological diseases (%): score 3 to 5 points; for ED50: Rattus norvegicus
Method: Rats were either orally administered with 80 mg/kg sodium nitrite to achieve hemic hypoxia, as explained In Example 1, or with 12 mg/kg Kainic acid to achieve chronic kainate degeneration of the brain by stimulation of AMPA/kainate receptors.

[10] = Dose increasing the life of rats by 50%, read-out: Hemic hypoxia (ED50), mg/kg, I.M. admin.
[11] = text summary of Table 2, span over hemic and asphyctic hypoxia, read-out: ED50, anti-hypoxic effect
[12] = Dose 5 mg/kg (combination: memantine dose)
[13] = Dose 10 mg/kg (combination: memantine dose)

CNC[C@H](O)c1cccc(O)c1 [Phenylephrine, phenylephrine]
Cerebral blood flow [1]: significant improvement in cerebral blood flow | Blood pressure after induced hypertension ([1]; from 100-110 mm): 160-170 mm | Effect on infarction and neurological damage ([2]; intravenous administration before ligation of the middle cerebral artery): prevented infarction development and reduced neurological damage | Hemic hypoxia, life of rats (min), Oral admin. ([3]; Dose 0.02 mg/kg): 60 ± 7 min | Hemic hypoxia, life of rats (min), Oral admin. ([3]; Dose 0.05 mg/kg): 62 ± 9 min | Hemic hypoxia, life of rats (min), Oral admin. ([3]; Dose 0.1 mg/kg): 67 ± 10 min | Hemic hypoxia, life of rats (min), Oral admin. ([3]; Dose 0.5 mg/kg): 77 ± 12 min | Hemic hypoxia, life of rats (min), Oral admin. ([3]; Dose 1.0 mg/kg (combination: memantine dose)): 88 ± 14 ^1 min

CNC[C@H](O)c1ccc(O)c(O)c1 [Epinephrine, epinephrine]
Chronic Kainate lethality in rats (%) ([4]; Dose 0.01 mg/kg): 90% | Rats with heavy neurologic disturbances (%) ([4]; Dose 0.01 mg/kg, 7-14 days after kainate): 100 ^ % | Rats with large weight loss (%) ([4]; Dose 0.01 mg/kg, underweight more than 30%, 7-14 days after kainate): 100 ^ % | Chronic Kainate lethality in rats (%) ([4]; Dose 0.02 mg/kg): 80% | Rats with heavy neurologic disturbances (%) ([4]; Dose 0.02 mg/kg, 7-14 days after kainate): 90 ^ % | Rats with large weight loss (%) ([4]; Dose 0.02 mg/kg, underweight more than 30%, 7-14 days after kainate): 80 ^ % | Chronic Kainate lethality in rats (%) ([4]; Dose 0.1 mg/kg): 20 ^1% | Rats with heavy neurologic disturbances (%) ([4]; Dose 0.1 mg/kg, 7-14 days after kainate): 30 ^1% | Rats with large weight loss (%) ([4]; Dose 0.1 mg/kg, underweight more than 30%, 7-14 days after kainate): 20 ^2% | Chronic Kainate lethality in rats (%) ([4]; Dose 0.2 mg/kg): 0 ^2% | Rats with heavy neurologic disturbances (%) ([4]; Dose 0.2 mg/kg, 7-14 days after kainate): 10 ^2% | Rats with large weight loss (%) ([4]; Dose 0.2 mg/kg, underweight more than 30%, 7-14 days after kainate): 0 ^2% | Dose with significant neuroprotective effect ([4]; combination: memantine dose): ≥ 0.1 mg/kg | Acute NMDA lethality in mice (%), I.P. admin. ([5]; Dose 0.01 mg/kg): 100 ^ % | Acute NMDA lethality in mice (%), I.P. admin. ([5]; Dose 0.02 mg/kg): 100 ^ % | Acute NMDA lethality in mice (%), I.P. admin. ([5]; Dose 0.1 mg/kg): 30 ^1% | Acute NMDA lethality in mice (%), I.P. admin. ([5]; Dose 0.2 mg/kg): 10 ^2% | Hemic hypoxia, rat life duration (min), I.M. admin. ([6]; Dose 0.01 mg/kg): 63 ± 7 ^ min | Hemic hypoxia, rat life duration (min), I.M. admin. ([6]; Dose 0.02 mg/kg): 69 ± 8 ^ min | Hemic hypoxia, rat life duration (min), I.M. admin. ([6]; Dose 0.1 mg/kg): 113 ± 16 ^2 min | Hemic hypoxia, rat life duration (min), I.M. admin. ([6]; Dose 0.2 mg/kg): 122 ± 19 ^2 min | ED50 [6, 10]: 0.06 ± 0.01 mg/kg | ED50 [6, 11]: 0.06 to 0.12 mg/kg | Dose with significant anti-hypoxic effect [6]: ≥ 0.1 mg/kg | Asphyctic hypoxia, mice life duration (sec), I.P. admin. ([7]; Dose 0.01 mg/kg): 711 ± 79 s | Asphyctic hypoxia, mice life duration (sec), I.P. admin. ([7]; Dose 0.02 mg/kg): 750 ± 90 s | Asphyctic hypoxia, mice life duration (sec), I.P. admin. ([7]; Dose 0.1 mg/kg): 990 ± 123 s | Asphyctic hypoxia, mice life duration (sec), I.P. admin. ([7]; Dose 0.2 mg/kg): 1250 ± 155 ^1 sec | ED50 [7]: 0.12 ± 0.02 mg/kg

CC12CC3CC(C)(C1)CC(N)(C3)C2 [Memantine, memantine]
Chronic Kainate lethality in rats (%) [4, 12]: 90% | Rats with heavy neurologic disturbances (%) ([4]; Dose 5 mg/kg (combination: memantine dose), 7-14 days after kainate): 90 ^ % | Rats with large weight loss (%) ([4]; Dose 5 mg/kg (combination: memantine dose), underweight more than 30%, 7-14 days after kainate): 90 ^ % | Chronic Kainate lethality in rats (%) [4, 13]: 70% | Rats with heavy neurologic disturbances (%) ([4]; Dose 10 mg/kg (combination: memantine dose), 7-14 days after kainate): 80 ^ % | Rats with large weight loss (%) ([4]; Dose 10 mg/kg (combination: memantine dose), underweight more than 30%, 7-14 days after kainate): 70 ^ % | Chronic Kainate lethality in rats (%) ([4]; Dose 20 mg/kg): 40 ^1% | Rats with heavy neurologic disturbances (%) ([4]; Dose 20 mg/kg, 7-14 days after kainate): 50 ^1% | Rats with large weight loss (%) ([4]; Dose 20 mg/kg, underweight more than 30%, 7-14 days after kainate): 40 ^1% | ED50 ([4]; Rattus norvegicus, im, read-out: Dose reducing the number of rats with a large deficit of weight by 50% (ED50), mg/kg, I.M. admin., underweight more than 30%, 7-14 days after kainate, combination: memantine dose): 17.6 ± 2.4 mg/kg | Dose with significant neuroprotective effect ([4]; combination: memantine dose): 20 mg/kg | Effect on brain injury and neurological disorders ([2]; prophylactic administration, 20 mg/kg): prevented injury of the brain and reduced neurological disorders | Acute NMDA lethality in mice (%), I.P. admin. [5, 12]: 100 ^ % | Acute NMDA lethality in mice (%), I.P. admin. [5, 13]: 60 ^ % | Acute NMDA lethality in mice (%), I.P. admin. ([5]; Dose 20 mg/kg): 16 ^1% | Hemic hypoxia, rat life duration (min), I.M. admin. [6, 12]: 63 ± 5 ^ min | Hemic hypoxia, rat life duration (min), I.M. admin. [6, 13]: 77 ± 8 ^ min | Hemic hypoxia, rat life duration (min), I.M. admin. ([6]; Dose 20 mg/kg): 86 ± 9 ^1 min | ED50 [6, 10]: 18.2 ± 2.3 mg/kg | ED50 [6, 11]: 18 to 20 mg/kg | Dose with significant anti-hypoxic effect [6]: 20 mg/kg | Neurological and cognitive function of stroke patients ([8]; 20 mg for 6 months, subacute and recovery phase of stroke): significantly improved neurological and cognitive function | Side effects of prolonged use at a high dose ([8]; prolonged use, high dose): development of agitation, insomnia, irritability, and psychosis | Chronic kainate lethality in rats, % per group ([9]; Dose 5 mg/kg (combination: memantine dose), oral): 90% | Rats with heavy neurological diseases (%) ([9]; Dose 5 mg/kg (combination: memantine dose), oral, 7-14 days after kainate): 90% | Rats with large weight loss (%) ([9]; Dose 5 mg/kg (combination: memantine dose), oral, underweight more than 30%, 7-14 days after kainate): 90% | Chronic kainate lethality in rats, % per group ([9]; Dose 10 mg/kg (combination: memantine dose), oral): 80% | Rats with heavy neurological diseases (%) ([9]; Dose 10 mg/kg (combination: memantine dose), oral, 7-14 days after kainate): 80% | Rats with large weight loss (%) ([9]; Dose 10 mg/kg (combination: memantine dose), oral, underweight more than 30%, 7-14 days after kainate): 70% | Chronic kainate lethality in rats, % per group ([9]; Dose 20 mg/kg, oral): 60% ^3 | Rats with heavy neurological diseases (%) ([9]; Dose 20 mg/kg, oral, 7-14 days after kainate): 70% | Rats with large weight loss (%) ([9]; Dose 20 mg/kg, oral, underweight more than 30%, 7-14 days after kainate): 60% ^3 | ED50 ([9]; read-out: Dose decreasing the number of rats with large weight loss by 50% (ED50), mg/kg, Oral admin., underweight more than 30%, 7-14 days after kainate, combination: memantine dose): 18.8 ± 2.4 mg/kg | ED50 ([9]; text summary of Table 6, span over hemic hypoxia and kainate endpoints, oral, combination: memantine dose, read-out: ED50, anti-hypoxic and neuroprotective effects): 18 to 20 mg/kg | Dose with significant neuroprotective effects ([9]; text summary of Table 5, oral, combination: memantine dose): 20 mg/kg | Asphyctic hypoxia, mice life duration (sec), I.P. admin. [7, 12]: 850 ± 80 s | Asphyctic hypoxia, mice life duration (sec), I.P. admin. [7, 13]: 936 ± 93 s | Asphyctic hypoxia, mice life duration (sec), I.P. admin. ([7]; Dose 20 mg/kg): 1070 ± 114 ^1 sec | ED50 [7]: 19.9 ± 2.8 mg/kg | Hemic hypoxia, life of rats (min), Oral admin. [3, 12]: 62 ± 7 min | Hemic hypoxia, life of rats (min), Oral admin. [3, 13]: 65 ± 9 min | Hemic hypoxia, life of rats (min), Oral admin. ([3]; Dose 20 mg/kg): 73 ± 11 min

From patent US20190343780A1, “LOW DOSE DRUG COMBINATIONS FOR USE IN PREVENTING AND TREATING NEURONAL DAMAGE” (priority 2016, published 2019)
